Test results as given in patent publication US9073858B2, “Methods of targeted drug development” (priority 2010, dated 2015).
Like-named read-outs stand apart in the source and are kept apart here.

Legend:
[1] = system: epithelial carcinoma A431 cell line; test: MTT Cell Proliferation Assay, A431 cell line; type: cell-based; conditions: for MTT-72 h A431/MDBK (ratio) / MTT (10 Point follow-up) ratio: value in brackets; for MTT-72 h A431/MDBK (ratio): numerically MDBK value over A431 value; for MTT (10 Point follow-up) ratio: numerically MDBK over A431
From the text: (§1) The following example describes the MTT Cell Proliferation Assay.
(§2) The MTT Cell Proliferation Assay is a colorimetric assay system that measures the reduction of the tetrazolium salt MTT (3-(4,5-dimethylthiazol-2-yl)-2,5-diphenyltetrazolium bromide) into insoluble formazan crystals, produced by the mitochondria of viable cells. […] The color can then be quantified by spectrophotometric means. Among the applications for the method are drug sensitivity, cytotoxicity, response to growth factors, and cell activation. The reduction of tetrazolium salts is now recognized as a safe, accurate alternative to radiometric testing.
(§3) Two replicates on each cell plate and 2 duplicate plates gave 4 individual replicates of each concentration, in each cell line. Concentrations were diluted in 100% DMSO from 25 mM stocks.
(§4) Twelve 96 well plates of each cell line were plated. Plating was done by dislodging cells as in passage protocol, counting on a hemocytometer, re-suspending in standard growth media, and plating using a multichannel pippetor.
(§5) 16 μl of 25 mM stock+34 μl DMSO=8 mM starting concentrations, and serial diluted as with test compounds in same plate. […] Two replicates of each concentrations was run on each cell plate. All compound addition and cell treatments were done using aseptic technique under a laminar flow aseptic hood.
(§6) Control: 0.5% DMSO in treatment media was used as the control.
(§7) MTT dye (Thiazolyl Blue Tetrazolium Bromide, Sigma cat # M5655) stock was prepared in bulk and stored at 4° C. for use: 5 mgs/ml sterile PDS, shielded from light. 4 ul of this stock per 100 uls treatment media per well was used.
(§8) Plates were incubated overnight prior to treatment, with treatment day=Day 0. Compound treatments were prepared prior to washing cells to minimize time cells were dry at room temperature after final aspiration. Compounds were diluted in 100% DMSO in 96 well polypropylene plates:40 μl 25 mM stock+10 μl DMSO=20 mM; 20 μl of 20 mM+30 μl DMSO=8 mM; 20 μl of 8 mM+30 μl DMSO=3.2 mM; 20 μl of 3.2 mM+30 μl DMSO=1.3 mM; 20 μl of 1.3 mM+30 μl DMSO=0.51 mM.
(§9) 5.0 μl/ml were added to treatment media, in sterile, 2.2 ml deep well plates=0.5% dmso final. Ten μl of each dmso concentration was added to 2.0 ml of treatment media and then mixed using a 1200 μl multichannel pipettor. Cell plates were treated from the deep well plates. Treatment media was standard growth media containing 0.5% FBS and standard additions. This reduced FBS concentration allowed for a slower growth rate in cells.
(§10) Media was aspirated from cell plates, and washed with 200 μl/well sterile PBS. Aspirated PBS wash, and cell plates were treated with 200 μl of compound/treatment media per well, and incubated at 37° C., 5% CO2 for 3 days.
(§11) Prior to harvesting, visual observations were made under an inverted microscope. Plates were harvested by: aspirating the growth media; adding back MTT dye/100 μl treatment media; and incubating plates at 37° C. for 1 hour. MTT dye was aspirated. 100 μl/well dmso was added, and then shaken on a Bellco plate shaker for 5 minutes, at 4.5 setting.
(§12) Plates were read in a Tecan Sunrize UV plate reader, at 560 nm. Settings: Read mode, Outside Normal 2 sec; Shake settle time 3 sec. Data is reported as % inhibition, calculated for individual plates using control values from that plate.

EGFR = target: T1, EGFR (Homo sapiens, UniProt P00533); test: EGFR in-cell Western (ICW) screening protocol; type: cell-based; set-up: unit not given here; conditions: for ICW Screen: initial screen
T1 construct: endogenous in cells; host or cells: A431 cells (ATCC CRL-1555)
T1 sequence (P00533 25-1210): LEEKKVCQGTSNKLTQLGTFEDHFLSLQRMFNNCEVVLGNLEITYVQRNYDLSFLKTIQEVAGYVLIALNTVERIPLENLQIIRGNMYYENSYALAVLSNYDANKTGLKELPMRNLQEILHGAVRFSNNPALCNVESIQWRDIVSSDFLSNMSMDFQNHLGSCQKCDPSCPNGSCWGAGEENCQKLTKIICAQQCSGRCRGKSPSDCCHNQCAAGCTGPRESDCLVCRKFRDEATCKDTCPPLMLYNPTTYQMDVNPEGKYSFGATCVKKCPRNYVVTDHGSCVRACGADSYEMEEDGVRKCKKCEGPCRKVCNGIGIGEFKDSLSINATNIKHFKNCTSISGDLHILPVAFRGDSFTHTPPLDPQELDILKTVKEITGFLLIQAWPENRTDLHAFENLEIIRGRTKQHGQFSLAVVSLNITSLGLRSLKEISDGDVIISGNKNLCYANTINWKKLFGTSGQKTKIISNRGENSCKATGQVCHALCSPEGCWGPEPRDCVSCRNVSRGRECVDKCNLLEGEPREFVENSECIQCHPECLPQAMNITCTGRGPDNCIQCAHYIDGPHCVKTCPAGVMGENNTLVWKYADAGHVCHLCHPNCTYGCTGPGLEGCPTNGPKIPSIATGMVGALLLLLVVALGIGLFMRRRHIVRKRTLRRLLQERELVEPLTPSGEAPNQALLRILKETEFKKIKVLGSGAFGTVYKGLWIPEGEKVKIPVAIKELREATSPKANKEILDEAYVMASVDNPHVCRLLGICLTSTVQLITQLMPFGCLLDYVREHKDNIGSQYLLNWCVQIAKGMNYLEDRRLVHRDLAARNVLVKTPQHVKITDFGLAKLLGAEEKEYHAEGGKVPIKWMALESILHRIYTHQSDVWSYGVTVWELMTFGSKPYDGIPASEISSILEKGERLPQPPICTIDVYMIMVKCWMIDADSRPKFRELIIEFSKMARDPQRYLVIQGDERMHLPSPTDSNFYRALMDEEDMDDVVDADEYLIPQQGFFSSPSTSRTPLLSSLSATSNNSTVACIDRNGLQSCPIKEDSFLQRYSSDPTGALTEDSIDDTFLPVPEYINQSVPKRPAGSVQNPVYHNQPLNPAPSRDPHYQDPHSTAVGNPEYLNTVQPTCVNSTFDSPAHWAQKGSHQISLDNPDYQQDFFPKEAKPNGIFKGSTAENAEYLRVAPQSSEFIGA
Experimental: The following example describes general EGFR in-cell Western (ICW) screening protocol.
Two cell plates were prepared for each compound plate.
Serum Starvation: The cells were serum starved prior to compound addition. […] The cell plates were incubated at 37° C./5% CO2 for 2 hours.
Prepared compound plates were stored at RT prior to use and at 4° C. long term.
Compound Dilution Plate Preparation: 250 μl of DMEM supplemented with 1 mg/ml BSA (Sigma A3059-10G) was added to the appropriate wells of a 96 well plate to prepare the compound dilution plates. Using a multichannel pipettor, 1.25 μl of compound from the compound plate was transferred into the compound dilution plate.
Compound Addition: The starve media was removed from the cell plates by aspiration. Using a multichannel pipettor, the compound dilution plates were mixed by pipetting up and down three times. 50 μl of mixed, diluted compound was added to each of two rows/columns on each of two cell plates. The cell plates with compound were incubated at 37° C./5% CO2 for 4 hours.
50 μl of 20 or 0 ng/ml EGF was added to the appropriate wells without the removal of compound. The compound and EGF were mixed by pipetting up and down three times.
The plates were incubated at RT for 20 min without shaking. The Fixation Solution was removed by aspiration and the plates washed four times with 200 μl each of Triton Wash Solution (1×PBS, Sigma P3813-10PK, and 0.1% Triton X-100, T8787-50ML) for 5 min with gentle shaking.
The block was removed by aspiration and 50 μl of diluted primary Ab mix was added. The plates were incubated at 4° C. overnight with gentle shaking. The plates were washed five times with 200 μl of PBST (1×PBS, Sigma P3813-10PK, and 0.1% Tween-20, Sigma P9416-50ML) for 5 min each with shaking. 50 μl of diluted secondary Ab mix was added and the plates incubated at RT for 1 h with shaking. The plates were washed 5× with 200 μl of PBST for 5 min each with shaking. One final wash with 200 μl of PBS (Sigma P3813-10PK) for 5 min with shaking was performed prior to scanning.
In some screening assays, the dilution of the secondary Ab conjugates was 1/800 rather than 1/1200.
Plate Scanning: The plates were scanned on an Odyssey Infrared Imaging System from LI-COR Biosciences. The focus offset was set at 3.5 mm and the scanning intensity set at 3 for the 700 channel and 7 for the 800 channel.
Data Analysis: The % of Maximum and % Inhibition values were calculated as follows. 700 Channel=signal for total EGFR (used to control for variation in cell number). 800 Channel=signal for phosphorylated EGFR. 800−EGF=basal level EGFR phosporylation+non-specific signal (no compound). 800+EGF=800−EGF+EGF dependent EGFR receptor phosphorylation (no compound). 700/800com=700 or 800 channel signals with compound. % Maximum={[(800com/700com)−(800−EGF/700−EGF)]/[(800+EGF/700+EGF)−(800−EGF/700−EGF)]}×100%. % Inhibition=100%−(% Maximum).

MDBK line = test: MTT Cell Proliferation Assay, MDBK line; type: cell-based, bovine
From the text: as §1, §2, §3, §4, §5, §6, §7, §8, §9, §10, §11, §12

[2] = Homo sapiens, A-431, 72 h, 72 h, first value of A431/MDBK pair, read-out: MTT-72 h A431
[3] = Bos taurus, MDBK, 72 h, second value of A431/MDBK pair, read-out: MTT-72 h MDBK
[4] = Homo sapiens, A-431, 10 point follow-up, first value of pair, read-out: MTT (10 Point follow-up) A431
[5] = Bos taurus, MDBK, 10 point follow-up, second value of pair, read-out: MTT (10 Point follow-up) MDBK

SMILES | MTT-72 h A431/MDBK (ratio) ([1]; 72 h) | IC50 [1, 2] | ICW Screen (EGFR) | IC50 (MDBK line; [3]) | MTT (10 Point follow-up) ratio ([1]; 10 point follow-up) | IC50 [1, 4] | ICW Re-Test (EGFR) | IC50 (MDBK line; [5]) | IC50 ([1]; 10 point follow-up, first value of pair, read-out: MTT (10 Point follow-up) A431) | IC50 (MDBK line; 10 point follow-up, second value of pair, read-out: MTT (10 Point follow-up) MDBK) | IC50 ([1]; 72 h, first value of A431/MDBK pair, read-out: MTT-72 h A431) | IC50 (MDBK line; 72 h, second value of A431/MDBK pair, read-out: MTT-72 h MDBK)
COc1ccc(C(Nc2cc(C)ccn2)c2ccc3cccnc3c2O)c(OC)c1OC (stereo not shown) [compound 10031] | 0.65 | 9.39 µM | 34.62 | 6.09 µM |  |  |  |  |  |  |  | 
Oc1c(C(Nc2ccccn2)c2ccccc2F)ccc2cccnc12 (stereo not shown) [compound 10033] | 2.49 | 1.85 µM | 49.36 | 4.62 µM | 2.44 | 1.81 µM | 5.98 | 4.43 µM |  |  |  | 
Cc1ccc2ccc(C(Nc3ccccn3)c3ccc(C)c(C)c3)c(O)c2n1 (stereo not shown) [compound 10034] | 0.60 | 12 µM | 27.1 | 7.16 µM |  |  |  |  |  |  |  | 
Cc1cccc(NC(c2ccc(O)cc2)c2ccc3ccc(C)nc3c2O)n1 (stereo not shown) [compound 10037] | 0.42 | 43 µM | 32.12 | 18.2 µM |  |  |  |  |  |  |  | 
Cc1ccnc(NC(c2ccc3c(c2)OCO3)c2ccc3cccnc3c2O)c1 (stereo not shown) [compound 10038] | 0.94 | 5.75 µM | 28.31 | 5.42 µM |  |  |  |  |  |  |  | 
CCc1ccc(C(Nc2ccccn2)c2ccc3cccnc3c2O)cc1 (stereo not shown) [compound 10041] | 1.00 | 2.95 µM | 45.08 | 2.94 µM | 1.47 | 1.59 µM | 3.45 | 2.34 µM |  |  |  | 
O=[N+]([O-])c1ccccc1C(Nc1ccccn1)c1ccc2cccnc2c1O (stereo not shown) [compound 10042] | 1.00 | 1.49 µM | 47.99 | 1.49 µM | 0.69 | 9.62 µM | −8.06 | 6.63 µM |  |  |  | 
Cc1cccc(NC(c2cccc(Cl)c2)c2ccc3cccnc3c2O)n1 (stereo not shown) [compound 10043] |  |  | 34.63 |  | 0.97 | 5.46 µM |  | 5.29 µM |  |  |  | 
Cc1ccc2ccc(C(Nc3ccccn3)c3ccc(F)cc3)c(O)c2n1 (stereo not shown) [compound 10045] | 0.73 | 13.5 µM | 27.22 | 9.85 µM |  |  |  |  |  |  |  | 
Oc1c(C(Nc2ccccn2)c2ccc(Cl)cc2Cl)ccc2cccnc12 (stereo not shown) [compound 10046] |  |  | 12.78 |  | 1.87 |  |  |  | 1.66 µM | 3.1 µM |  | 
Oc1c(C(Nc2ccccn2)c2ccc(Br)cc2)ccc2cccnc12 (stereo not shown) [compound 10048] |  |  | 44.94 |  | 0.96 | 5.46 µM | 15.3 | 5.23 µM |  |  |  | 
CCOc1ccccc1C(Nc1ccccn1)c1ccc2ccc(C)nc2c1O (stereo not shown) [compound 10049] | 0.94 | 12.2 µM | 35.57 | 11.5 µM |  |  |  |  |  |  |  | 
C=CCOc1cccc(C(Nc2ccccn2)c2ccc3cccnc3c2O)c1 (stereo not shown) [compound 10050] | 0.97 | 5.39 µM | 32.11 | 5.35 µM |  |  |  |  |  |  |  | 
Oc1c(C(Nc2ccccn2)c2cccc(Cl)c2Cl)ccc2cccnc12 (stereo not shown) [compound 10051] | 1.80 | 0.79 µM | 36.47 | 1.42 µM | 1.79 | 0.545 µM |  | 0.974 µM |  |  |  | 
C=CCOc1ccc(C(Nc2ccccn2)c2ccc3cccnc3c2O)cc1 (stereo not shown) [compound 10052] |  | 2.35 µM | 43.1 |  | 0.67 | 13.8 µM | 20.95 | 9.25 µM |  |  |  | 
Cc1ccnc(NC(c2cccc(OCc3ccccc3)c2)c2ccc3cccnc3c2O)c1 (stereo not shown) [compound 10053] |  |  | 32.85 |  | 0.11 | 3.98 µM |  | 0.44 µM |  |  |  | 
Cc1ccc(C(Nc2cccc(C)n2)c2ccc3cccnc3c2O)cc1 (stereo not shown) [compound 10054] | 1.00 | 5.47 µM | 35.84 | 5.46 µM |  |  |  |  |  |  |  | 
Cc1cccc(NC(c2ccc3c(c2)OCO3)c2ccc3cccnc3c2O)n1 (stereo not shown) [compound 10055] | 0.68 |  | 28.09 |  |  |  |  |  |  |  | 12.1 µM | 8.17 µM
Cc1cccc(NC(c2ccc(F)cc2)c2ccc3cccnc3c2O)n1 (stereo not shown) [compound 10056] | 0.96 | 5.38 µM | 34.16 | 5.18 µM |  |  | 44.46 |  |  |  |  | 
Cc1cccc(NC(c2ccc(Cl)cc2)c2ccc3cccnc3c2O)n1 (stereo not shown) [compound 10058] | 1.13 | 5.14 µM | 28.52 | 5.83 µM | 1.56 | 1.08 µM |  | 1.68 µM |  |  |  | 
Oc1ccc(Br)c(C(Nc2ccccn2)c2ccc3cccnc3c2O)c1 (stereo not shown) [compound 10064] |  |  | 9.336 |  | 1.29 | 1.56 µM |  | 2.01 µM |  |  |  | 
